This note sets out measurements from publication PMC10486429, “Investigations Using Albumin Binders to Modify the Tissue Distribution Profile of Radiopharmaceuticals Exemplified with Folate Radioconjugates” (Cancers, 2023).

A short description of this data set: Radiolytic stability of 177Lu-DOTA-ALBs in PBS (HPLC). Particulars: room temperature, 100 MBq/500 µL PBS. It counts as physicochemical. Here is the method: The radiolabeling of DOTA-ALBs was carried out under standard labeling conditions at pH 4.5. The ligands (10−100 μM) were mixed with lutetium-177 (no-carrier added [^177Lu]LuCl3; in 0.04 M HCl; ITM GmbH Medical Isotopes, Munich, Germany) to reach molar activities of 25–50 MBq/nmol (Supplementary Materials Section S2). An analytical HPLC system equipped with a C18 column and a radioactivity detector was used for quality control of the radiolabeled DOTA-ALBs (Supplementary Materials Section S2). The ^177Lu-DOTA-ALBs were used for preclinical investigations without separation of the labeled from the unlabeled fraction. The radiolytic stability of the ^177Lu-DOTA-ALBs (50 MBq/nmol) diluted in phosphate-buffered saline (PBS; 100 MBq/500 μL) was assessed in vitro in the absence and presence of L-ascorbic acid (Supplementary Materials Section S3). The n-octanol/PBS distribution coefficients (logD values) were determined using a shake-flask method according to an established protocol (Supplementary Materials Section S4). The logD values were analyzed using a one-way ANOVA with Tukey’s multiple comparisons post-test using GraphPad Prism software (version 8). A p-value of <0.05 was considered a statistically significant difference. […]
S2. Radiolabeling of DOTA-ALBs with Lutetium-177
Purpose: The DOTA-ALBs were labeled with lutetium-177 for subsequent in vitro and […]
Methods: The DOTA-ALBs were dissolved in Milli-Q water at a concentration of 1 mM. Radiolabeling was performed by incubation of the respective DOTA-ALBs with lutetium-177 (no-carrier-added, in 0.04 M HCl; ITM Medical Isotopes GmbH, Munich, Germany) at 95 °C for 10 min in a 1:5 (v/v) mixture of sodium acetate (0.5 M) and HCl (0.05 M) at pH ~4.5 as previously reported. Quality control was performed by reversed-phase HPLC using an aliquot of the radiolabeled DOTA-ALBs (⁓1.5 MBq) diluted in Milli-Q water containing penta-sodium diethylenetriamine pentaacetic acid (Na5-DTPA; 50 µM). The HPLC system (Merck Hitachi LaChrom HPLC) was equipped with a D-7000 interface, a radioactivity detector (LB 508, Berthold Technologies GmbH), a L-6200A pump and a reversed-phase C18 column (XterraTM, 5 µm, 4.6×150 mm, Waters, USA). A linear gradient of 0.1% TFA in Milli-Q water (95–20%) and MeCN (5–80%) over 15 min was used as a mobile phase at a 1 mL/min flow rate. […]
to 50 MBq/nmol. The 177Lu-DOTA-ALBs were used without further purification for their in vitro and in vivo evaluation.
S3. Radiolytic Stability of 177Lu-DOTA-ALBs
Purpose: The stability of each 177Lu-labeled DOTA-ALB was assessed at a high activ-ity concentration to assess potential radiolytic degradation in the absence and presence of […]
Methods: After quality control of the labeled DOTA-ALBs using HPLC (t0), the radio-labeled DOTA-ALBs (50 MBq/nmol) were diluted in PBS pH 7.4 to obtain an activity con-centration of 100 MBq/500 µL. The samples were incubated at room temperature in the absence or presence of L-ascorbic acid (3 mg). Sodium acetate solution (0.5 M, pH 8.0, 150 µL) was added to the samples containing L-ascorbic acid in order to adjust the pH value to ⁓6.5. The integrity of the radiolabeled DOTA-ALBs was assessed after a 4 h- and 24 h-incubation period using HPLC as described above (Supplementary Material, Section S2). The HPLC chromatograms were analyzed by determination of the peak area of the radio-labeled DOTA-ALBs, the released lutetium-177 as well as potential degradation products of unknown structure. The quantity of the intact product was expressed as per-centage of the sum of integrated peak areas of the entire chromatogram and set in relation to the original value determined at t0 (radiochemical purity ≥95% set as 100%).
Results: The results are reported in the main article and presented together with the retention times of the product peak in Table S2.
Table S2. Radiolytic stability of 177Lu-DOTA-ALBs after incubation in the absence or presence of L-ascorbic acid at room temperature (average of n=2 individually performed experiments). […]

Structures are written as SMILES.

As to `O=C(O)CN1CCN(CC(=O)O)CCN(CC(=O)NCCC(=O)N[C@@H](CCCCNC(=O)CCCc2ccc(I)cc2)C(=O)O)CCN(CC(=O)O)CC1.[177Lu]` [[^177Lu]Lu-DOTA-ALB-1], the Intact radioligand is recorded as 99% (with L-ascorbic acid, 4 h); 96% (with L-ascorbic acid, 24 h); 92% (without L-ascorbic acid, 4 h); 51% (without L-ascorbic acid, 24 h).

Consider `O=C(O)CN1CCN(CC(=O)O)CCN(CC(=O)NCCC(=O)N[C@@H](CCCCNC(=O)c2ccc(CNC(=O)CCCc3ccc(I)cc3)cc2)C(=O)O)CCN(CC(=O)O)CC1.[177Lu]` [[^177Lu]Lu-DOTA-ALB-3], for which the Intact radioligand runs as follows: (with L-ascorbic acid, 4 h) 99%; (with L-ascorbic acid, 24 h) 97%; (without L-ascorbic acid, 4 h) 89%; (without L-ascorbic acid, 24 h) 39%.

For the compound `O=C(O)CN1CCN(CC(=O)O)CCN(CC(=O)NCCC(=O)N[C@@H](CCCCNC(=O)CCCCc2ccc(I)cc2)C(=O)O)CCN(CC(=O)O)CC1.[177Lu]` [[^177Lu]Lu-DOTA-ALB-24], the Intact radioligand (with L-ascorbic acid, 4 h) was determined as 99%; the Intact radioligand (with L-ascorbic acid, 24 h) is 95%; the Intact radioligand (without L-ascorbic acid, 4 h) is recorded as 88%; the Intact radioligand (without L-ascorbic acid, 24 h) was found to be 39%.

As for `O=C(O)CN1CCN(CC(=O)O)CCN(CC(=O)NCCC(=O)N[C@@H](CCCCNC(=O)c2ccc(CNC(=O)CCCCc3ccc(I)cc3)cc2)C(=O)O)CCN(CC(=O)O)CC1.[177Lu]` [[^177Lu]Lu-DOTA-ALB-25], the Intact radioligand (with L-ascorbic acid, 4 h) is recorded as 99%; the Intact radioligand (with L-ascorbic acid, 24 h) came out at 97%; the Intact radioligand (without L-ascorbic acid, 4 h) worked out at 91%; the Intact radioligand (without L-ascorbic acid, 24 h) is 41%.
